Measured values from US9567291B2, “N-(4-(bis(4-(dimethylamino)phenyl)methylene)-8-(dimethylamino)” (EMORY UNIVERSITY, priority 2013, dated 2017).
Entries after “also recorded” stand apart in the source; their conditions may differ.

Columns and labels:
Format in all cases: cell-based
LM36 cells = assay: cell proliferation assay, LM36 cells; conditions: 24 h treatment
Protocol: (§1) FIG. 1 illustrates the cell proliferation assay procedure. 5×10^4 cells were seeded in 24-well plates and incubated for 24 h. Stock solutions of PSB, PSMB, and IB were diluted into 5 mL of appropriate media samples for each treatment concentration (1 μM, 2.5 μM, etc). One mL was then added to each of the four wells per treatment concentration. Cells were incubated for 24 h in standard conditions. Cells were then washed with Phosphate Buffered Saline (Sigma Aldrich) and harvested by trypsinization (0.5 mL/well). Cells were incubated for 10 minutes in standard conditions and diluted into a 10 mL isotone solution. The isotone solution was subsequently placed into a cell counter, providing a count that represented 1/20 the number of cells per well.
(§2) A375 cells were grown in high-glucose Dulbecco's modified Eagle's medium (DMEM) (Mediatech) supplemented with fetal bovine serum (FBS) and penicillin/streptomycin (Sigma-Aldrich) in standard conditions (37° C., 5% CO2, humidified atmosphere). LM36 and LM36R cells were grown in cultured in RPMI medium supplemented with 10% FBS, L-glutamine and antibiotics in standard conditions (37° C., 5% CO2, humidified atmosphere).

A375 cells = assay: cell proliferation assay, A375 cells; conditions: 24 h treatment; for inhibition of cell proliferation: cell count, FIG. 4A/5A
Protocol: as §1, §2

LM36R cells = assay: cell proliferation assay, LM36R cells; conditions: 24 h treatment
Protocol: as §1, §2

N-(4-(bis(4-(diethylamino)phenyl)methylene)-8-(dimethylamino) naphthalen-1(4H)-ylidene)-N-methylmethanaminium [PSB]
antiproliferative potency compared to IB (LM36 cells): Such a trend is not observed | antiproliferative potency compared to IB (A375 cells): only exhibits greater antiproliferative effects in A375 cells; also recorded: more potent than IB | inhibition of cell proliferation (A375 cells): inhibits A375 proliferation in a concentration-dependent fashion | antiproliferative potency compared to IB (LM36R cells): Such a trend is not observed

N-(4-(bis(4-(dimethylamino)phenyl)methylene)-8-(dimethylamino)naphthalen-1(4H)-ylidene)-N-methylmethanaminium [PSMB]
antiproliferative potency compared to IB (LM36 cells): greater antiproliferative effects than IB; also recorded: more potent inhibition than IB | inhibition of cell proliferation (LM36 cells; cell count, FIG. 4C/5C): anti-proliferative effects that operate in a concentration-dependent fashion | antiproliferative potency compared to IB (A375 cells): greater antiproliferative effects than IB; also recorded: more potent inhibition than IB | inhibition of cell proliferation (A375 cells): anti-proliferative effects that operate in a concentration-dependent fashion | antiproliferative potency compared to IB (LM36R cells): greater antiproliferative effects than IB; also recorded: more potent inhibition than IB | inhibition of cell proliferation (LM36R cells; cell count, FIG. 4B/5B): anti-proliferative effects that operate in a concentration-dependent fashion
